Counter-ions that a name gives are not always drawn.
Legend:
[1] = Test for a moisturizability (weight change after standing at constant temperature and humidity); assay type: physicochemical; conditions: dried sample, 20°C, humidity 75% for 7 days, then 20°C, humidity 45% for 7 days, evaluated from change in weight
Method: Approximately one gram of a sample was taken in a weighing bottle, and dried with diphosphorus pentoxide under reduced pressure for 4 hours. The resulting sample was used in the following test. The weight was accurately measured, and the sample was allowed to stand in a constant temperature and constant humidity box having a temperature of 20°C and a humidity of 75% for 7 days. Subsequently, the sample was moved in a constant temperature and constant humidity box having a temperature of 20°C and a humidity of 45%, and allowed to stand for 7 days. The moisturizability was evaluated from the change in weight. As a control sample, glycerin was used. […]

[2] = system: rat; conditions: p. o.; cited from earlier work

Compound	Water holding capacity (%) ([1]; sodium salt)	Water holding capacity (%) [1] [%]	LD50 [2] [mg/kg]
N[C@@H](CCC(=O)NCCS(=O)(=O)O)C(=O)O [Glutaurine sodium salt, glutaurine sodium salt]	19.45		
N[C@@H](CCC(=O)NCCS(=O)(=O)O)C(=O)O [Glutaurine, glutaurine]		17.12	> 1000
OCC(O)CO [Glycerin, glycerin, reference compound]		19.88	
